Test results from US20150119476A1, “DEVELOPMENT, CHARACTERIZATION, AND USE OF AN ANTI-HYPUSINATED eIF5A ANTIBODY TO DIAGNOSE DIABETES” (Indiana University Research and Technology Corp., priority 2013, published 2015).

Legend:
[1] = molecular target: T1, DHS (Homo sapiens, UniProt P49366); test: in vitro hypusination reaction of recombinant eIF5A with DHS, DHH, spermidine and GC7, immunoblot read-out; assay type: biochemical
T1 construct: His6 (N); made in house; host or cells: E. coli
T1 sequence (P49366 1-369): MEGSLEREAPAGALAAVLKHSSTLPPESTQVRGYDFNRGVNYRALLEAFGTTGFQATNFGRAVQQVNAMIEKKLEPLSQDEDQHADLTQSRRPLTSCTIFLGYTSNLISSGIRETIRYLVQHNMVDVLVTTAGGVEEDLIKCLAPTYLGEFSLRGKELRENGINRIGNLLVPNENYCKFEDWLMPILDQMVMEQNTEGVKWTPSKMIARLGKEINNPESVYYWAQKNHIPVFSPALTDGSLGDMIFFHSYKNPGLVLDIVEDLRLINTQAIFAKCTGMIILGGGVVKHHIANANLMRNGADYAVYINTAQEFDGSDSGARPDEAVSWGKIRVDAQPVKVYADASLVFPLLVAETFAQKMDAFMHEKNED
From the text: Reactions in vitro—For in vitro experiments, eIF5A protein was purified from E. coli as a GST fusion, after which the GST tag was proteolytically removed. DHS protein was purified from E. coli as an N-terminal His6 fusion. Purified human DHH protein was purchased from OriGene. The hypusination reactions in vitro proceeded as previously published.
(§1) Antibodies and immunoblotting—The rabbit polyclonal antibody IU-88 against hypusinated human eIF5A was generated in rabbits using the synthetic hypusine-containing peptide C-Ahx-STSKTG[hypusine]HGHAKV-amide (SEQ ID NO. 1) by contract to 21st Century Biochemicals. Monoclonal mouse pan-anti-eIF5A antibody was from BD Biosciences and anti-actin antibody was from MP Biomedicals. Immunoblot analysis was visualized using a LiCor Odyssey fluorescence system following electrophoresis on a 4-20% SDS polyacrylamide gel. Primary antibodies were diluted 1:1500 (IU-88) and 1:10,000 (anti-pan-eIF5A).
In order to determine if IU-88 specifically recognizes the deoxyhypusine or hypusine forms of eIF5A, immunoblots of reactions in which recombinant human eIF5A was incubated in vitro with DHS, DHH, spermidine, and/or the potent DHS inhibitor GC7 were performed. Referring now to FIG. 1A. […] Increasing the DHS concentration and time of incubation led to increasing eIF5A signal intensity in these studies (data not shown).

[2] = test system: INS-1 β cells; test: GC7 treatment of transfected INS-1 cells, immunoblot of cell extracts; assay type: cell-based, rat; conditions: increasing GC7 concentrations, FIG. 1E
Experimental: (§2) Cell culture, transfection and DHS inhibition—Human 293T and rat INS-1(832/13) β cells were cultured as described. Cells were transiently transfected with plasmids encoding EGFP-eIF5A, EGFP-eIF5A(K50A) and EGFP-DHS constructs using Lipofectamine 2000 (Invitrogen) for 16 hours before cell extraction or immunofluorescence analysis. The DHS inhibitor GC7 (Biosearch Technologies) was prepared and used in cell culture as previously described.
as §1
Referring now to FIG. 1E.

[3] = test system: 293T cells; test: GC7 treatment of transfected 293T cells, immunoblot of cell extracts; assay type: cell-based, human
Experimental: as §2, §1
Referring now to FIG. 1D. When 293T cells are transfected with GFP-eIF5A, a weak but detectable signal corresponding to GFP-eIF5A is observed using IU-88 (lane 1).

eIF5A signal intensity (IU-88 immunoblot) ([1]; co-incubation with 300 nM GC7, FIG. 1A lanes 3 and 6): reduction in eIF5A signal intensity
inhibition of eIF5A signal intensity (IU-88 immunoblot) ([1]; higher concentrations of GC7 up to 10 μM, FIG. 1B): near-complete inhibition
SMILES: NCCCCCCCN=C(N)N [GC7]
GFP-eIF5A signal observed with IU-88 [2]: reduces the GFP-eIF5A signal observed with IU-88
signal observed with the pan-anti-eIF5A antibody [2]: also reduces the signal observed with the pan-anti-eIF5A antibody
GFP-eIF5A signal detected by IU-88 ([3]; 293T cells co-transfected with GFP-DHS, GC7, FIG. 1D lanes 5 and 6): corresponding decrease in the presence of GC7
GFP-eIF5A signal detected by IU-88 ([3]; 293T cells transfected with GFP-eIF5A, increasing concentrations of GC7, FIG. 1D lanes 2 and 3): signal decreases further
endogenous eIF5A signal recognized by IU-88 ([3]; 293T cells, increasing GC7): observed to decrease with increasing GC7
